{"source": "patent US20150105252A1", "about": "“SUBSTITUTED PYRAZOLES AS HERBICIDES” (E I DU PONT DE NEMOURS AND COMPANY, priority 2013, published 2015)", "key": {"[1]": {"system": "lambsquarters", "test": "Test C preemergence", "type": "in vivo, Chenopodium album", "settings": "preemergence", "procedure,_shortened": "(§1)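 Visual rating, 0–100 scale (0 no effect, 100 complete control), vs untreated controls after 13–15 d greenhouse. Pre: seeds in loam/sand, treated at sowing. Post: plants in peat-based mix, 1- to 4-leaf (2–18 cm). Solvent + surfactant formulation, non-phytotoxic.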"}, "[2]": {"system": "ryegrass, Italian", "test": "Test C postemergence", "type": "in vivo, Lolium multiflorum", "settings": "for Plant response rating, Ryegrass, Italian: postemergence", "procedure,_shortened": "as §1"}, "[3]": {"system": "galium", "test": "Test C postemergence", "type": "in vivo, Galium aparine", "procedure,_shortened": "as §1"}, "[4]": {"system": "foxtail, giant", "test": "Test C postemergence", "type": "in vivo, Setaria faberii", "procedure,_shortened": "as §1"}, "[5]": {"system": "lambsquarters", "test": "Test C postemergence", "type": "in vivo, Chenopodium album", "procedure,_shortened": "as §1"}, "[6]": {"system": "morningglory", "test": "Test C postemergence", "type": "in vivo, Ipomoea coccinea", "procedure,_shortened": "as §1"}, "[7]": {"system": "nutsedge, yellow", "test": "Test C postemergence", "type": "in vivo, Cyperus esculentus", "procedure,_shortened": "as §1"}, "[8]": {"system": "pigweed", "test": "Test C postemergence", "type": "in vivo, Amaranthus retroflexus", "procedure,_shortened": "as §1"}, "[9]": {"system": "ragweed", "test": "Test C postemergence", "type": "in vivo, Ambrosia elation", "settings": "for Plant response rating, Ragweed: postemergence", "procedure,_shortened": "as §1"}, "[10]": {"system": "soybean", "test": "Test C postemergence", "type": "in vivo, Glycine max", "procedure,_shortened": "as §1"}, "[11]": {"system": "barnyardgrass", "test": "Test C postemergence", "type": "in vivo, Echinochloa crus-galli", "procedure,_shortened": "as §1"}, "[12]": {"system": "waterhemp", "test": "Test C postemergence", "type": "in vivo, Amaranthus rudis", "procedure,_shortened": "as §1"}, "[13]": {"system": "oat, wild", "test": "Test C postemergence", "type": "in vivo, Avena fatua", "procedure,_shortened": "as §1"}, "[14]": {"system": "kochia", "test": "Test C postemergence", "type": "in vivo, Kochia scoparia", "procedure,_shortened": "as §1"}, "[15]": {"system": "velvetleaf", "test": "Test C postemergence", "type": "in vivo, Abutilon theophrasti", "procedure,_shortened": "as §1"}, "[16]": {"system": "chickweed", "test": "Test C postemergence", "type": "in vivo, Stellaria media", "procedure,_shortened": "as §1"}, "[17]": {"settings": "Postemergence, 31 g ai/ha, visually evaluated after 13 to 15 days"}, "[18]": {"settings": "250 g ai/ha, scale 0 to 100 (0 no effect, 100 complete control)"}, "[19]": {"settings": "125 g ai/ha, scale 0 to 100, 0 no effect, 100 complete control"}, "[20]": {"settings": "postemergence, 62 g ai/ha, scale 0 to 100"}, "[21]": {"settings": "postemergence, 250 g ai/ha, scale 0 to 100 (0 no effect, 100 complete control)"}, "[22]": {"settings": "postemergence, 125 g ai/ha, scale 0 to 100, 0 no effect, 100 complete control"}}}
{"smiles": "CCc1cc(C(=O)NC(C)C)nn1Cc1ccnc(C(F)(F)F)c1", "note": "[Compound 139]", "values": [{"measurement": "Lambsquarters plant response rating", "setting": "[1]; 31 g ai/ha, visual rating, scale 0 to 100 (0 no effect, 100 complete control), 13 to 15 days", "result": 35}, {"measurement": "Lambsquarters plant response rating", "setting": "[1]; 62 g ai/ha, scale 0 to 100 (0 no effect, 100 complete control), 13 to 15 days", "result": 85}, {"measurement": "Plant response rating, Lambsquarters", "setting": "[1]; 125 g ai/ha, 13 to 15 days, scale 0 to 100, 0 = no effect, 100 = complete control", "result": 100}, {"measurement": "Lambsquarters plant response rating", "setting": "[1]; 250 g ai/ha, scale 0 to 100, 0 is no effect, 100 is complete control", "result": 100}, {"measurement": "Plant response rating (scale of 0 to 100 where 0 is no effect and 100 is complete control), Ryegrass, Italian", "setting": "[2]; [17]", "result": 0}, {"measurement": "Plant response rating, Ryegrass, Italian", "setting": "[2]; [18]", "result": 5}, {"measurement": "Plant response rating, Ryegrass, Italian", "setting": "[2]; [19]", "result": 10}, {"measurement": "Plant response rating (scale of 0 to 100 where 0 is no effect and 100 is complete control), Galium", "setting": "[3]; [17]", "result": 50}, {"measurement": "Galium plant response rating", "setting": "[3]; [20]", "result": 60}, {"measurement": "Plant response rating, Galium", "setting": "[3]; [21]", "result": 70}, {"measurement": "Plant response rating, Galium", "setting": "[3]; [22]", "result": 60}, {"measurement": "Plant response rating (scale of 0 to 100 where 0 is no effect and 100 is complete control), Foxtail, Giant", "setting": "[4]; [17]", "result": 5}, {"measurement": "Foxtail, Giant plant response rating", "setting": "[4]; [20]", "result": 5}, {"measurement": "Plant response rating, Foxtail, Giant", "setting": "[4]; [21]", "result": 65}, {"measurement": "Plant response rating, Foxtail, Giant", "setting": "[4]; [22]", "result": 10}, {"measurement": "Plant response rating (scale of 0 to 100 where 0 is no effect and 100 is complete control), Lambsquarters", "setting": "[5]; [17]", "result": 40}, {"measurement": "Lambsquarters plant response rating", "setting": "[5]; [20]", "result": 55}, {"measurement": "Plant response rating, Lambsquarters", "setting": "[5]; [21]", "result": 85}, {"measurement": "Plant response rating, Lambsquarters", "setting": "[5]; [22]", "result": 70}, {"measurement": "Plant response rating (scale of 0 to 100 where 0 is no effect and 100 is complete control), Morningglory", "setting": "[6]; [17]", "result": 60}, {"measurement": "Morningglory plant response rating", "setting": "[6]; [20]", "result": 60}, {"measurement": "Plant response rating, Morningglory", "setting": "[6]; [21]", "result": 80}, {"measurement": "Plant response rating, Morningglory", "setting": "[6]; [22]", "result": 90}, {"measurement": "Plant response rating (scale of 0 to 100 where 0 is no effect and 100 is complete control), Nutsedge, Yellow", "setting": "[7]; [17]", "result": 5}, {"measurement": "Nutsedge, Yellow plant response rating", "setting": "[7]; [20]", "result": 5}, {"measurement": "Plant response rating, Nutsedge, Yellow", "setting": "[7]; [21]", "result": 5}, {"measurement": "Plant response rating, Nutsedge, Yellow", "setting": "[7]; [22]", "result": 5}, {"measurement": "Plant response rating (scale of 0 to 100 where 0 is no effect and 100 is complete control), Pigweed", "setting": "[8]; [17]", "result": 30}, {"measurement": "Pigweed plant response rating", "setting": "[8]; [20]", "result": 40}, {"measurement": "Plant response rating, Pigweed", "setting": "[8]; [21]", "result": 60}, {"measurement": "Plant response rating, Pigweed", "setting": "[8]; [22]", "result": 40}, {"measurement": "Plant response rating (scale of 0 to 100 where 0 is no effect and 100 is complete control), Ragweed", "setting": "[9]; [17]", "result": 35}, {"measurement": "Plant response rating, Ragweed", "setting": "[9]; [18]", "result": 25}, {"measurement": "Plant response rating, Ragweed", "setting": "[9]; [19]", "result": 35}, {"measurement": "Plant response rating (scale of 0 to 100 where 0 is no effect and 100 is complete control), Soybean", "setting": "[10]; [17]", "result": 15}, {"measurement": "Plant response rating, Soybean", "setting": "[10]; [21]", "result": 85}, {"measurement": "Soybean plant response rating", "setting": "[10]; [22]", "result": 55}, {"measurement": "Plant response rating (scale of 0 to 100 where 0 is no effect and 100 is complete control), Barnyardgrass", "setting": "[11]; [17]", "result": 10}, {"measurement": "Barnyardgrass plant response rating", "setting": "[11]; [20]", "result": 10}, {"measurement": "Plant response rating, Barnyardgrass", "setting": "[11]; [21]", "result": 20}, {"measurement": "Plant response rating, Barnyardgrass", "setting": "[11]; [22]", "result": 10}, {"measurement": "Plant response rating (scale of 0 to 100 where 0 is no effect and 100 is complete control), Waterhemp", "setting": "[12]; [17]", "result": 30}, {"measurement": "Plant response rating, Waterhemp", "setting": "[12]; [21]", "result": 65}, {"measurement": "Waterhemp plant response rating", "setting": "[12]; postemergence, scale 0 to 100", "result": 55}, {"measurement": "Plant response rating (scale of 0 to 100 where 0 is no effect and 100 is complete control), Oat, Wild", "setting": "[13]; [17]", "result": 10}, {"measurement": "Oat, Wild plant response rating", "setting": "[13]; [20]", "result": 10}, {"measurement": "Plant response rating, Oat, Wild", "setting": "[13]; [21]", "result": 40}, {"measurement": "Plant response rating, Oat, Wild", "setting": "[13]; [22]", "result": 30}, {"measurement": "Plant response rating (scale of 0 to 100 where 0 is no effect and 100 is complete control), Kochia", "setting": "[14]; [17]", "result": 60}, {"measurement": "Kochia plant response rating", "setting": "[14]; [20]", "result": 75}, {"measurement": "Plant response rating, Kochia", "setting": "[14]; [21]", "result": 85}, {"measurement": "Plant response rating, Kochia", "setting": "[14]; [22]", "result": 85}, {"measurement": "Plant response rating (scale of 0 to 100 where 0 is no effect and 100 is complete control), Velvetleaf", "setting": "[15]; [17]", "result": 10}, {"measurement": "Plant response rating, Velvetleaf", "setting": "[15]; [21]", "result": 25}, {"measurement": "Velvetleaf plant response rating", "setting": "[15]; postemergence, scale 0 to 100", "result": 15}, {"measurement": "Plant response rating (scale of 0 to 100 where 0 is no effect and 100 is complete control), Chickweed", "setting": "[16]; [17]", "result": 60}, {"measurement": "Chickweed plant response rating", "setting": "[16]; [20]", "result": 60}, {"measurement": "Plant response rating, Chickweed", "setting": "[16]; [21]", "result": 80}, {"measurement": "Plant response rating, Chickweed", "setting": "[16]; [22]", "result": 65}]}
